Source: patent publication US20200068890A1 (Person to Whom the Inventor is Obligated to Assign, priority 2017, published 2020)
Where two headings read alike, the source gives them in different places.

Key:
Format in all cases: cell-based
[1] = system: Enterococcus faecium 12204; assay: Broth microdilution MIC
Method in brief: (§1)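 EUCAST broth microdilution in TSB, inoculum 1×10^6 bacteria/ml, incubated 20 h at 37 °C. Growth read by absorbance at 600 nm; MIC taken as lowest compound concentration inhibiting visible growth.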

[2] = system: Klebsiella pneumoniae M6; assay: Broth microdilution MIC
Method in brief: as §1

[3] = system: Acinetobacter baumannii AYE; assay: Broth microdilution MIC
Method in brief: as §1

[4] = system: EMRSA-15; assay: Broth microdilution MIC
Method in brief: as §1

[5] = system: Pseudomonas aeruginosa 13437; assay: Broth microdilution MIC
Method in brief: as §1

[6] = system: Escherichia coli NCTC12923; assay: Broth microdilution MIC
Method in brief: as §1

[7] = system: Klebsiella pneumoniae 13368; assay: Broth microdilution MIC
Method in brief: as §1

[8] = system: Acinetobacter baumannii 17978; assay: Broth microdilution MIC
Method in brief: as §1

[9] = system: EMRSA-16; assay: Broth microdilution MIC
Method in brief: as §1

[10] = system: Pseudomonas aeruginosa PA01; assay: Broth microdilution MIC
Method in brief: as §1

[11] = system: Enterococcus faecalis 775; assay: Broth microdilution MIC
Method in brief: as §1

[12] = system: Enterococcus faecalis 12201; assay: Broth microdilution MIC
Method in brief: as §1

[13] = system: Gram-positive and Gram-negative bacterial species; assay: Broth microdilution MIC, panel summary; conditions: read-out: MIC values
Experimental: Assays were carried out by a broth microdilution method using a 96-well plate according to guidelines defined by the European Committee on Antimicrobial Susceptibility Testing as described here. Overnight cultures of strains were grown in tryptic soy broth (TSB) at 37° C. The overnight cultures were diluted to a concentration of 1×10^6 bacteria/ml (OD600=0.01) in TSB media. To each well on 96 well plates, 100 μl of bacterially infected media at a concentration of 1×10^6/ml and compounds at various concentrations were added. An uninfected control (i.e. no bacteria) was also included. The plates were incubated at 37° C. wrapped in parafilm for 20 hrs. The growth was assessed by measuring the absorbance at 600 nm. The minimum inhibitory concentration (MIC) was determined to be the lowest concentration of compound that inhibits visible bacterial growth.

[14] = Enterococcus faecium 12204, replicate 1, read-out: MIC #1
[15] = Enterococcus faecium 12204, replicate 2, read-out: MIC #2
[16] = Enterococcus faecium 12204, replicate 3, read-out: MIC #3
[17] = Klebsiella pneumoniae M6, replicate 1, read-out: MIC #1
[18] = Klebsiella pneumoniae M6, replicate 2, read-out: MIC #2
[19] = Klebsiella pneumoniae M6, replicate 3, read-out: MIC #3
[20] = EMRSA-15, replicate 1, read-out: MIC #1
[21] = EMRSA-15, replicate 2, read-out: MIC #2
[22] = EMRSA-15, replicate 3, read-out: MIC #3
[23] = Pseudomonas aeruginosa 13437, replicate 1, read-out: MIC #1
[24] = Pseudomonas aeruginosa 13437, replicate 2, read-out: MIC #2
[25] = Pseudomonas aeruginosa 13437, replicate 3, read-out: MIC #3
[26] = Escherichia coli NCTC12923, replicate 1, read-out: MIC #1
[27] = Escherichia coli NCTC12923, replicate 2, read-out: MIC #2
[28] = Escherichia coli NCTC12923, replicate 3, read-out: MIC #3
[29] = Klebsiella pneumoniae 13368, replicate 1, read-out: MIC #1
[30] = Klebsiella pneumoniae 13368, replicate 2, read-out: MIC #2
[31] = Klebsiella pneumoniae 13368, replicate 3, read-out: MIC #3
[32] = Acinetobacter baumannii 17978, replicate 1, read-out: MIC #1
[33] = Acinetobacter baumannii 17978, replicate 2, read-out: MIC #2
[34] = Acinetobacter baumannii 17978, replicate 3, read-out: MIC #3
[35] = EMRSA-16, replicate 1, read-out: MIC #1
[36] = EMRSA-16, replicate 2, read-out: MIC #2
[37] = EMRSA-16, replicate 3, read-out: MIC #3
[38] = Pseudomonas aeruginosa PA01, replicate 1, read-out: MIC #1
[39] = Pseudomonas aeruginosa PA01, replicate 2, read-out: MIC #2
[40] = Pseudomonas aeruginosa PA01, replicate 3, read-out: MIC #3
[41] = Enterococcus faecalis 775, replicate 1, read-out: MIC #1
[42] = Enterococcus faecalis 775, replicate 2, read-out: MIC #2
[43] = Enterococcus faecalis 775, replicate 3, read-out: MIC #3
[44] = Enterococcus faecalis 12201, replicate 1, read-out: MIC #1
[45] = Enterococcus faecalis 12201, replicate 2, read-out: MIC #2
[46] = Enterococcus faecalis 12201, replicate 3, read-out: MIC #3

Measured: MIC

COc1ccc(/C=C2\SC(=O)N(CC(=O)O)C2=O)cc1 [Compound 5, (Z)-2-(5-(4-Methoxybenzylidene)-2,4-dioxothiazolidin-3-yl)acetic Acid]
> 64 µg/mL: [1]; [14] | [1]; [15] | [1]; [16] | [2]; [17] | [2]; [18] | [2]; [19] | [3]; replicate 1, read-out: MIC #1 | [3]; replicate 2, read-out: MIC #2 | [3]; replicate 3, read-out: MIC #3 | [4]; [20] | [4]; [21] | [4]; [22] | [5]; [23] | [5]; [24] | [5]; [25] | [6]; [26] | [6]; [27] | [6]; [28] | [7]; [29] | [7]; [30] | [7]; [31] | [8]; [32] | [8]; [33] | [8]; [34] | [9]; [35] | [9]; [36] | [9]; [37] | [10]; [38] | [10]; [39] | [10]; [40] | [11]; [41] | [11]; [42] | [11]; [43] | [12]; [44] | [12]; [45] | [12]; [46]

COc1ccccc1/C=C1\SC(=O)N(CC(=O)O)C1=O [Compound 3, (Z)-2-(5-(2-Methoxybenzylidene)-2,4-dioxothiazolidin-3-yl)acetic Acid]
> 64 µg/mL: [13] | [1]; [14] | [1]; [15] | [1]; [16] | [2]; [17] | [2]; [18] | [2]; [19] | [3]; replicate 1, read-out: MIC #1 | [3]; replicate 2, read-out: MIC #2 | [3]; replicate 3, read-out: MIC #3 | [4]; [20] | [4]; [21] | [4]; [22] | [5]; [23] | [5]; [24] | [5]; [25] | [6]; [26] | [6]; [27] | [6]; [28] | [7]; [29] | [7]; [30] | [7]; [31] | [8]; [32] | [8]; [33] | [8]; [34] | [9]; [35] | [9]; [36] | [9]; [37] | [10]; [38] | [10]; [39] | [10]; [40] | [11]; [41] | [11]; [42] | [11]; [43] | [12]; [44] | [12]; [45] | [12]; [46]
